Converted amounts (≈) assume the structure as drawn.
Columns and labels:
E. coli AG100 = experiment: microbe, parasite or virus in culture; assay type: cell-based; conditions: Escherichia coli, AG100, read-out: MIC E. coli AG100
A. baumannii ATCC 19606 = experiment: microbe, parasite or virus in culture; assay type: cell-based; conditions: Acinetobacter baumannii, ATCC19606, read-out: MIC, A. baumannii ATCC 19606
N. gonorrhoeae WHO Z = experiment: Liquid broth MIC in Fastidious broth; conditions: Neisseria gonorrhoeae, read-out: Minimum Inhibitory Concentration (MIC), N. gonorrhoeae WHO Z
K. pneumoniae UMM = experiment: microbe, parasite or virus in culture; assay type: cell-based; conditions: Klebsiella pneumoniae, read-out: MIC K. pneumoniae UMM
P. aeruginosa ATCC 27853 = experiment: microbe, parasite or virus in culture; assay type: cell-based; conditions: Pseudomonas aeruginosa, ATCC27853, read-out: MIC P. aeruginosa ATCC 27853
E. coli 901C = experiment: microbe, parasite or virus in culture; assay type: cell-based; conditions: Escherichia coli, read-out: MIC E. coli 901C

| SMILES | MIC (E. coli AG100) | MIC (A. baumannii ATCC 19606) | MIC (N. gonorrhoeae WHO Z) | MIC (K. pneumoniae UMM) | MIC (P. aeruginosa ATCC 27853) | MIC (E. coli 901C) |
| --- | --- | --- | --- | --- | --- | --- |
| CN1CCC[C@@H]1C(=O)N[C@@H](C(=O)N[C@H]1Cc2cccc(C(=O)O)c2OB1O)c1ccc(P(=O)(O)O)cc1 (racemic) [Example 54, (R)-2-hydroxy-3-((S)-2-((R)-1-methylpyrrolidine-2-carboxamido)-2-(4-phosphonophenyl)acetamido)-3,4-dihydro-2H-benzo[e][1,2]oxaborinine-8-carboxylic acid and (R)-2-hydroxy-3-((R)-2-((R)-1-methylpyrrolidine-2-carboxamido)-2-(4-phosphonophenyl)acetamido)-3,4-dihydro-2H-benzo[e][1,2]oxaborinine-8-carboxylic acid] | > 128 µg/mL | > 128 µg/mL | 16 to 32 µg/mL (≈ 30.1 to 60.2 µM) | > 128 µg/mL | > 128 µg/mL | 32 to 64 µg/mL (≈ 60.2 to 120 µM) |
| CCN1CCN(C(=O)N[C@@H](C(=O)N[C@H]2Cc3cccc(C(=O)O)c3OB2O)c2ccc(P(=O)(O)O)c(F)c2)C(=O)C1=O (single isomer, unassigned) [Example 7] | 8 to 16 µg/mL (≈ 13.2 to 26.4 µM) | 8 to 16 µg/mL (≈ 13.2 to 26.4 µM) | < 1 µg/mL | 32 to 64 µg/mL (≈ 52.8 to 106 µM) | 32 to 64 µg/mL (≈ 52.8 to 106 µM) | < 1 µg/mL |
| CCN1CCN(C(=O)N[C@H](C(=O)N[C@H]2Cc3ccc(F)c(C(=O)O)c3OB2O)c2ccc(P(=O)(O)O)cc2)C(=O)C1=O (single isomer, unassigned) [Example 9] | > 128 µg/mL | > 128 µg/mL | < 1 µg/mL | > 128 µg/mL | > 128 µg/mL | 2 to 4 µg/mL (≈ 3.3 to 6.6 µM) |
| CCN1CCN(C(=O)N[C@@H](C(=O)N[C@H]2Cc3cccc(C(=O)O)c3OB2O)c2ccc(P(C)(=O)O)cc2)C(=O)C1=O (single isomer, unassigned) [Example 47] | 8 to 16 µg/mL (≈ 13.6 to 27.3 µM) | 32 to 64 µg/mL (≈ 54.6 to 109 µM) | 1 to 2 µg/mL (≈ 1.71 to 3.41 µM) | > 128 µg/mL | > 128 µg/mL | < 1 µg/mL |
| O=C(O)c1cccc2c1OB(O)[C@@H](NC(=O)[C@@H](NC(=O)c1ccn[nH]c1=O)c1ccc(P(=O)(O)O)cc1)C2 (single isomer, unassigned) [Example 177] | > 128 µg/mL | > 128 µg/mL | 4 to 8 µg/mL (≈ 7.38 to 14.8 µM) | > 128 µg/mL | > 128 µg/mL | 2 to 4 µg/mL (≈ 3.69 to 7.38 µM) |
| O=C(O)c1cccc2c1OB(O)[C@@H](NC(=O)[C@H](NC(=O)c1ccn[nH]c1=O)c1ccc(P(=O)(O)O)cc1)C2 (single isomer, unassigned) [Example 178] | > 128 µg/mL | 32 to 64 µg/mL (≈ 59 to 118 µM) | < 1 µg/mL | 32 to 64 µg/mL (≈ 59 to 118 µM) | 32 to 64 µg/mL (≈ 59 to 118 µM) | < 1 µg/mL |
| Cn1cccc(C(=O)N[C@H](C(=O)N[C@H]2Cc3cccc(C(=O)O)c3OB2O)c2ccc(P(=O)(O)O)cc2)c1=O (single isomer, unassigned) [Example 181] | > 128 µg/mL | > 128 µg/mL | 16 to 32 µg/mL (≈ 28.8 to 57.6 µM) | > 128 µg/mL | > 128 µg/mL | 32 to 64 µg/mL (≈ 57.6 to 115 µM) |
| Cn1cccc(C(=O)N[C@@H](C(=O)N[C@H]2Cc3cccc(C(=O)O)c3OB2O)c2ccc(P(=O)(O)O)cc2)c1=O (single isomer, unassigned) [Example 182] | > 128 µg/mL | > 128 µg/mL | 1 to 2 µg/mL (≈ 1.8 to 3.6 µM) | > 128 µg/mL | > 128 µg/mL | 2 to 4 µg/mL (≈ 3.6 to 7.2 µM) |
| O=C(O)c1cccc2c1OB(O)[C@@H](NC(=O)[C@@H](NC(=O)c1cccn(C(F)F)c1=O)c1ccc(P(=O)(O)O)cc1)C2 (single isomer, unassigned) [Example 190] | > 128 µg/mL | > 128 µg/mL | 4 to 8 µg/mL (≈ 6.77 to 13.5 µM) | > 128 µg/mL | > 128 µg/mL | 2 to 4 µg/mL (≈ 3.38 to 6.77 µM) |
| O=C(O)c1cccc2c1OB(O)[C@@H](NC(=O)[C@H](NC(=O)c1cccn(C(F)F)c1=O)c1ccc(P(=O)(O)O)cc1)C2 (single isomer, unassigned) [Example 191] | > 128 µg/mL | > 128 µg/mL | 1 to 2 µg/mL (≈ 1.69 to 3.38 µM) | > 128 µg/mL | > 128 µg/mL | < 1 µg/mL |
| O=C(N[C@H](C(=O)N[C@H]1Cc2cccc(C(=O)O)c2OB1O)c1ccc(P(=O)(O)O)cc1)c1ccc(C(F)(F)F)cn1 (single isomer, unassigned) [Example 192] | > 128 µg/mL | > 128 µg/mL | 1 to 2 µg/mL (≈ 1.69 to 3.37 µM) | > 128 µg/mL | > 128 µg/mL | < 1 µg/mL |
| O=C(N[C@@H](C(=O)N[C@H]1Cc2cccc(C(=O)O)c2OB1O)c1ccc(P(=O)(O)O)cc1)c1ccc(C(F)(F)F)cn1 (single isomer, unassigned) [Example 193] | 32 to 64 µg/mL (≈ 53.9 to 108 µM) | > 128 µg/mL | < 1 µg/mL | > 128 µg/mL | > 128 µg/mL | < 1 µg/mL |
| O=C(O)c1cccc2c1OB(O)[C@@H](NC(=O)[C@@H](NC(=O)c1cnc3sccn3c1=O)c1ccc(P(=O)(O)O)cc1)C2 (single isomer, unassigned) [Example 194] | > 128 µg/mL | > 128 µg/mL | 16 to 32 µg/mL (≈ 26.7 to 53.5 µM) | > 128 µg/mL | > 128 µg/mL | 2 to 4 µg/mL (≈ 3.34 to 6.69 µM) |
| O=C(O)c1cccc2c1OB(O)[C@@H](NC(=O)[C@H](NC(=O)c1cnc3sccn3c1=O)c1ccc(P(=O)(O)O)cc1)C2 (single isomer, unassigned) [Example 195] | > 128 µg/mL | > 128 µg/mL | 4 to 8 µg/mL (≈ 6.69 to 13.4 µM) | > 128 µg/mL | 32 to 64 µg/mL (≈ 53.5 to 107 µM) | 2 to 4 µg/mL (≈ 3.34 to 6.69 µM) |
| CS(=O)(=O)N1CCN(C(=O)NC(C(=O)N[C@H]2Cc3cccc(C(=O)O)c3OB2O)c2ccc(P(=O)(O)O)c(F)c2)C1=O (stereo partly drawn) [Example 12, (3R)-3-(2-(3-fluoro-4-phosphonophenyl)-2-(3-(methylsulfonyl)-2-oxoimidazolidine-1-carboxamido)acetamido)-2-hydroxy-3,4-dihydro-2H-benzo[e][1,2]oxaborinine-8-carboxylic acid] | 8 to 16 µg/mL (≈ 12.7 to 25.5 µM) | 32 to 64 µg/mL (≈ 50.9 to 102 µM) | < 1 µg/mL | > 128 µg/mL | > 128 µg/mL | < 1 µg/mL |
| CCN1CCN(C(=O)NC(C(=O)N[C@H]2Cc3cccc(C(=O)O)c3OB2O)c2cccc(CP(=O)(O)O)c2)C(=O)C1=O (stereo partly drawn) [Example 22, (3R)-3-(2-(4-ethyl-2,3-dioxopiperazine-1-carboxamido)-2-(3-(phosphonomethyl)phenyl)acetamido)-2-hydroxy-3,4-dihydro-2H-benzo[e][1,2]oxaborinine-8-carboxylic acid] | 8 to 16 µg/mL (≈ 13.3 to 26.6 µM) | 32 to 64 µg/mL (≈ 53.1 to 106 µM) | 1 to 2 µg/mL (≈ 1.66 to 3.32 µM) | 32 to 64 µg/mL (≈ 53.1 to 106 µM) | > 128 µg/mL | < 1 µg/mL |
| CCN1CCN(C(=O)NC(C(=O)N[C@H]2Cc3cccc(C(=O)O)c3OB2O)c2c(F)cc(P(=O)(O)O)cc2F)C(=O)C1=O (stereo partly drawn) [Example 25, (3R)-3-(2-(2,6-difluoro-4-phosphonophenyl)-2-(4-ethyl-2,3-dioxopiperazine-1-carboxamido)acetamido)-2-hydroxy-3,4-dihydro-2H-benzo[e][1,2]oxaborinine-8-carboxylic acid] | 32 to 64 µg/mL (≈ 51.3 to 103 µM) | > 128 µg/mL | < 1 µg/mL | 32 to 64 µg/mL (≈ 51.3 to 103 µM) | > 128 µg/mL | < 1 µg/mL |
| CCC(=O)NC(C(=O)N[C@H]1Cc2cccc(C(=O)O)c2OB1O)c1ccc(P(=O)(O)O)cc1 (stereo partly drawn) [Example 27, (3R)-2-hydroxy-3-(2-(4-phosphonophenyl)-2-propionamidoacetamido)-3,4-dihydro-2H-benzo[e][1,2]oxaborinine-8-carboxylic acid] | > 128 µg/mL | > 128 µg/mL | 16 to 32 µg/mL (≈ 33.6 to 67.2 µM) | > 128 µg/mL | > 128 µg/mL | 8 to 16 µg/mL (≈ 16.8 to 33.6 µM) |
| CC(C)C(=O)NC(C(=O)N[C@H]1Cc2cccc(C(=O)O)c2OB1O)c1ccc(P(=O)(O)O)cc1 (stereo partly drawn) [Example 28, (3R)-2-hydroxy-3-(2-isobutyramido-2-(4-phosphonophenyl)acetamido)-3,4-dihydro-2H-benzo[e][1,2]oxaborinine-8-carboxylic acid] | > 128 µg/mL | > 128 µg/mL | 16 to 32 µg/mL (≈ 32.6 to 65.3 µM) | > 128 µg/mL | > 128 µg/mL | 8 to 16 µg/mL (≈ 16.3 to 32.6 µM) |
| CC(C)(C)C(=O)NC(C(=O)N[C@H]1Cc2cccc(C(=O)O)c2OB1O)c1ccc(P(=O)(O)O)cc1 (stereo partly drawn) [Example 29, (3R)-2-hydroxy-3-(2-(4-phosphonophenyl)-2-pivalamidoacetamido)-3,4-dihydro-2H-benzo[e][1,2]oxaborinine-8-carboxylic acid] | > 128 µg/mL | 32 to 64 µg/mL (≈ 63.5 to 127 µM) | 16 to 32 µg/mL (≈ 31.7 to 63.5 µM) | 32 to 64 µg/mL (≈ 63.5 to 127 µM) | 32 to 64 µg/mL (≈ 63.5 to 127 µM) | 8 to 16 µg/mL (≈ 15.9 to 31.7 µM) |
| O=C(O)c1cccc2c1OB(O)[C@@H](NC(=O)C(NC(=O)C1CC1)c1ccc(P(=O)(O)O)cc1)C2 (stereo partly drawn) [Example 30, (3R)-3-(2-(cyclopropanecarboxamido)-2-(4-phosphonophenyl)acetamido)-2-hydroxy-3,4-dihydro-2H-benzo[e][1,2]oxaborinine-8-carboxylic acid] | > 128 µg/mL | > 128 µg/mL | 16 to 32 µg/mL (≈ 32.8 to 65.5 µM) | > 128 µg/mL | > 128 µg/mL | 8 to 16 µg/mL (≈ 16.4 to 32.8 µM) |
| O=C(O)c1cccc2c1OB(O)[C@@H](NC(=O)C(NC(=O)C1CCCCC1)c1ccc(P(=O)(O)O)cc1)C2 (stereo partly drawn) [Example 31, (3R)-3-(2-(cyclohexanecarboxamido)-2-(4-phosphonophenyl)acetamido)-2-hydroxy-3,4-dihydro-2H-benzo[e][1,2]oxaborinine-8-carboxylic acid] | > 128 µg/mL | > 128 µg/mL | 16 to 32 µg/mL (≈ 30.2 to 60.3 µM) | > 128 µg/mL | > 128 µg/mL | 32 to 64 µg/mL (≈ 60.3 to 121 µM) |
| O=C(NC(C(=O)N[C@H]1Cc2cccc(C(=O)O)c2OB1O)c1ccc(P(=O)(O)O)cc1)c1ccccn1 (stereo partly drawn) [Example 32, (3R)-2-hydroxy-3-(2-(4-phosphonophenyl)-2-(picolinamido)acetamido)-3,4-dihydro-2H-benzo[e][1,2]oxaborinine-8-carboxylic acid] | > 128 µg/mL | > 128 µg/mL | 1 to 2 µg/mL (≈ 1.9 to 3.81 µM) | > 128 µg/mL | > 128 µg/mL | 2 to 4 µg/mL (≈ 3.81 to 7.62 µM) |

Source: US20240270762A1, “PENICILLIN-BINDING PROTEIN INHIBITORS” (priority 2021, published 2024)
